Test [1] concerns the target T1, Integrin alpha-4/beta-1 (Homo sapiens, UniProt P05556+P13612). The test is described as follows: Inhibition of alpha4-beta1 (very late) antigen binding with VCAM-1 immunoglobulin. It is filed as protein-complex assay.
For test [2], the target named is T1, Integrin alpha-4/beta-1. Put plainly: Inhibition of alpha4-beta1 (very late) antigen binding with VCAM-1 immunoglobulin plus 5% human plasma. It is filed as cell-free.
Test [3] has as its target T2, Integrin alpha-4/beta-7 (Homo sapiens, UniProt P13612+P26010).
T2 sequence (P13612 whole entry): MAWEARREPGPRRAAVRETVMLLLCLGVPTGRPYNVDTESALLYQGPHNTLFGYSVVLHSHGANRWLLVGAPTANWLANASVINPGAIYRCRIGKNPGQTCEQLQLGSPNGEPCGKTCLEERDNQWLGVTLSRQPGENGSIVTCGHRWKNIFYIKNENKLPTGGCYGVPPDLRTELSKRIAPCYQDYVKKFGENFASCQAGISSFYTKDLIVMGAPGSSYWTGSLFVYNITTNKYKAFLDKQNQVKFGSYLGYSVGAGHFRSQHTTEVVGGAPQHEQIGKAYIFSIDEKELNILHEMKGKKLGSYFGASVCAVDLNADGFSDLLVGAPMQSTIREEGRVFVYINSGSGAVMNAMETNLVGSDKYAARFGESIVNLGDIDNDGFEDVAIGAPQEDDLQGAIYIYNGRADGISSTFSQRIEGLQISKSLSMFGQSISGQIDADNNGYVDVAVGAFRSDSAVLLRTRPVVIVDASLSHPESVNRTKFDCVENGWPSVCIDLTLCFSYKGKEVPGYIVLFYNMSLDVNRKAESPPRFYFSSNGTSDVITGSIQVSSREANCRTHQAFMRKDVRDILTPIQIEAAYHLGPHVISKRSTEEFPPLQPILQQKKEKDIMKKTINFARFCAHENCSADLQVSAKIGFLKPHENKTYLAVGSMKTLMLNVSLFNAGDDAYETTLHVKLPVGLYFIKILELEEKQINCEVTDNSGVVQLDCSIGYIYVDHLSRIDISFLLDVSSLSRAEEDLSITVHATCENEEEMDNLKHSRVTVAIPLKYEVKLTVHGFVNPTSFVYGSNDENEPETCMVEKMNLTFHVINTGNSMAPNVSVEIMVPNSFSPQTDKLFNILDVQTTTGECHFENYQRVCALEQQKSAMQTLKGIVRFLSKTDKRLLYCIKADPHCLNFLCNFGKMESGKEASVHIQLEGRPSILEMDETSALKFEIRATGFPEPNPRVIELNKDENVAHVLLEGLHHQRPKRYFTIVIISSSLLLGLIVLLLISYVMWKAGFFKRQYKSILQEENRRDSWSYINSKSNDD
T2 sequence (P26010 whole entry): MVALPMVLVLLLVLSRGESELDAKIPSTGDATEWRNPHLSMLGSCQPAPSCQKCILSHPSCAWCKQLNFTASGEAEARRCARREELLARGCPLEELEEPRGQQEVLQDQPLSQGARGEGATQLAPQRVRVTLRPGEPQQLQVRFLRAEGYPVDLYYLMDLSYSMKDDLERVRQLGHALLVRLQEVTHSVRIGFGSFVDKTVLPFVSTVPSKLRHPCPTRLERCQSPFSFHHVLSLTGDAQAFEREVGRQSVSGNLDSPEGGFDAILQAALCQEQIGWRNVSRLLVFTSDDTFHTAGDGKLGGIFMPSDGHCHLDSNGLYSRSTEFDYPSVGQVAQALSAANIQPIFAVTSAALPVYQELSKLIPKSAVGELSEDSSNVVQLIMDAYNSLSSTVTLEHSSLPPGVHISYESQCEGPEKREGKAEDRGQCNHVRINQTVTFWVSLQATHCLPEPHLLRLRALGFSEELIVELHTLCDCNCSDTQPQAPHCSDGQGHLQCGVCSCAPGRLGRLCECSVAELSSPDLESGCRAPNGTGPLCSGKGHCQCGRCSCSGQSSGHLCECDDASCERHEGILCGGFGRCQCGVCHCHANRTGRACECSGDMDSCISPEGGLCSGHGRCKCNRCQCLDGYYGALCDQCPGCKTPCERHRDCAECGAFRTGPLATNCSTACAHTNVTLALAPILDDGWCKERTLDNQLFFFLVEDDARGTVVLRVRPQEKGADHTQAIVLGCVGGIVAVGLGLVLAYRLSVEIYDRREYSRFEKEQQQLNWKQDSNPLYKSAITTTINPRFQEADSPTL
Put plainly: Inhibition of alpha4-beta7 antigen with MAdCAM immunoglobulin. It is filed as protein-complex assay.

Test [4] concerns the target Integrin alpha-4/beta-7 (Homo sapiens) (UniProt P13612+P26010). Put plainly: Selectivity for alpha4-beta7 to that of alpha4-beta1. It is filed as protein-complex assay.

T1 sequence (P05556 whole entry, one chain of several): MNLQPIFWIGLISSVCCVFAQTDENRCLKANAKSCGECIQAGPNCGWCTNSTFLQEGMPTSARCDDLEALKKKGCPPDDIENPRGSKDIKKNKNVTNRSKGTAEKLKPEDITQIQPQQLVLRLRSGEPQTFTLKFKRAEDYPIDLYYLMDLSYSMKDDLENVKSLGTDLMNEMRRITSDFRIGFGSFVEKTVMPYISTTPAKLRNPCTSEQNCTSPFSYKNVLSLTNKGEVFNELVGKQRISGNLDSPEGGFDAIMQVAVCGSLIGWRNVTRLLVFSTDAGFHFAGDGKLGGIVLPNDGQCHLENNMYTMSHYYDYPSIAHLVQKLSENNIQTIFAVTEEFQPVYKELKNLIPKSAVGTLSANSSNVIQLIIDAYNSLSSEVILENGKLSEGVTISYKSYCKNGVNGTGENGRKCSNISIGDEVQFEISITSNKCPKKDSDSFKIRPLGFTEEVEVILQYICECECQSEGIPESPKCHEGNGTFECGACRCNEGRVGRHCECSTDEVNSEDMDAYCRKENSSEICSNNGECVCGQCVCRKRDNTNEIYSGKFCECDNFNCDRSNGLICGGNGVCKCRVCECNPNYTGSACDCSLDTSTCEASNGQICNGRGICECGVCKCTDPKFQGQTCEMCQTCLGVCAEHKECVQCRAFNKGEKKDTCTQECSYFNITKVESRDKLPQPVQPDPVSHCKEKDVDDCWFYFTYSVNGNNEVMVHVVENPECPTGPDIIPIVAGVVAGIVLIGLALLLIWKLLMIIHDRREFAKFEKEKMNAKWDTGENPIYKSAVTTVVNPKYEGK

Consider `COc1cccc(OC)c1-c1ccc(C[C@H](NC(=O)[C@@]2(CCCO)CCCO2)C(=O)O)cc1`, for which the figures for the IC50 in test [1], in test [2] and in test [3] were 2.12 nM, 3.36 nM and 35.3 nM, respectively. The Ratio in test [4] is 17.
Turning to `COc1cc(OC)cc([C@]2(C(=O)N[C@@H](Cc3ccc(-c4c(OC)cccc4OC)cc3)C(=O)O)CCCO2)c1`, the IC50 in test [1] came to 1.48 nM; in test [2], 5.77 nM.
With `COc1cccc(OC)c1-c1ccc(C[C@H](NC(=O)[C@@]2(C(C)C)CCCO2)C(=O)O)cc1`, the IC50 in test [1] stood at 0.7 nM; in test [2], 7.46 nM; in test [3], 6.1 nM. The Ratio in test [4] was found to be 9.
The corresponding values for `COc1cccc(OC)c1-c1ccc(C[C@H](NC(=O)[C@@]2(CCO)CCCO2)C(=O)O)cc1` are 1.56 nM, 7.59 nM, 16.3 nM and 10.
Turning to `COc1ccccc1-c1ccc(C[C@H](NC(=O)[C@@]2(C(=O)N3CCN(C)CC3)CCCO2)C(=O)O)cc1`, the IC50 was found to be 0.59 nM in test [1], 1 nM in test [2] and 23.2 nM in test [3]. Besides, in test [4], the Ratio was 39.
Consider `COc1ccccc1-c1ccc(C[C@H](NC(=O)[C@@]2(c3ccc(C(C)(C)C)cc3)CCCO2)C(=O)O)cc1`, for which the concentration for half-maximal inhibition (IC50) in test [1] came out at 1.8 nM; in test [2], 29 nM; in test [3] it was 99.5 nM. Further, the Ratio in test [4] came to 55.
As for `COc1ccccc1-c1ccc(C[C@H](NC(=O)[C@@]2(c3ccc(F)cc3)CCCO2)C(=O)O)cc1`, the results for the IC50 in test [1], in test [2] and in test [3] were 4.3 nM, 48 nM and 45.7 nM, respectively. In addition, the Ratio in test [4] is 11.
Regarding `COc1cccc(OC)c1-c1ccc(C[C@H](NC(=O)[C@@]2(CC(C)C)CCCO2)C(=O)O)cc1`, the IC50 in test [1] was found to be 1.15 nM; in test [2] it was 4.02 nM; in test [3], 22.3 nM. Also, in test [4], the Ratio came out at 19.
The like results for `CCCC[C@]1(C(=O)N[C@@H](Cc2ccc(-c3c(OC)cccc3OC)cc2)C(=O)O)CCCO1` were, in that order, 0.48 nM, 1.46 nM, 13.8 nM and 29.
Regarding `COc1cccc(OC)c1-c1ccc(C[C@H](NC(=O)[C@@]2(c3cccc(N)c3)CCCO2)C(=O)O)cc1`, the IC50 in test [1] was found to be 0.92 nM; in test [2] it was 5.63 nM; in test [3], 26.6 nM. Besides, the Ratio in test [4] amounted to 29.
The like results for `COc1cccc(OC)c1-c1ccc(C[C@H](NC(=O)[C@@]2(CCCCO)CCCO2)C(=O)O)cc1` were, in that order, 255 nM, 870 nM, 245 nM and 1.
The like results for `COc1cccc(OC)c1-c1ccc(C[C@H](NC(=O)[C@@]2(CCN(C)C)CCCO2)C(=O)O)cc1` were, in that order, 15.5 nM, 19.5 nM, 80 nM and 5.
The like results for `COc1ccccc1-c1ccc(C[C@H](NC(=O)[C@@]2(C(=O)N3CCCC3)CCCO2)C(=O)O)cc1` were, in that order, 1.33 nM, 4.42 nM, 22.9 nM and 17.
On to `COc1ccccc1-c1ccc(C[C@H](NC(=O)[C@@]2(c3ccccc3)CCCO2)C(=O)O)cc1`, for which the IC50 amounted to 2.2 nM in test [1] and 56.4 nM in test [3]. In addition, in test [4], the Ratio came out at 26.
In the case of `COc1cccc(OC)c1-c1ccc(C[C@H](NC(=O)[C@@]2(CCCN(C)C)CCCO2)C(=O)O)cc1`, the IC50 in test [1] came out at 9.18 nM; in test [3], 67 nM. Moreover, the Ratio in test [4] is 7.
The like results for `COc1cccc(OC)c1-c1ccc(C[C@H](NC(=O)[C@@]2(c3ncc(C)s3)CCCO2)C(=O)O)cc1` were, in that order, 0.31 nM, 14.5 nM and 47.
On to `COc1cccc(OC)c1-c1ccc(C[C@H](NC(=O)[C@]2(C)OC(C)CC2N)C(=O)O)cc1` (some centres undefined), for which the IC50 in test [1] is 2.6 nM; in test [3], 149 nM. In addition, the Ratio in test [4] amounted to 57.
In the case of `COc1cccc(OC)c1-c1ccc(C[C@H](NC(=O)[C@]2(C)OC(C)CC2=O)C(=O)O)cc1` (some centres undefined), the values for the IC50 in test [1], in test [2] and in test [3] were 0.7 nM, 1.32 nM and 24.5 nM, respectively. Further, the Ratio in test [4] was found to be 35.
The like results for `COc1ccccc1-c1ccc(C[C@H](NC(=O)[C@@]2(c3ccc(Cl)cc3)CCCO2)C(=O)O)cc1` were, in that order, 4.09 nM, 46 nM, 275 nM and 67.
Turning to `COc1cccc(OC)c1-c1ccc(C[C@H](NC(=O)[C@@]2(c3ccc(Cl)c([N+](=O)[O-])c3)CCCO2)C(=O)O)cc1`, the IC50 is 0.47 nM in test [1], 2.41 nM in test [2] and 45.6 nM in test [3]. Also, in test [4], the Ratio is 97.
The corresponding values for `COc1ccccc1-c1ccc(C[C@H](NC(=O)[C@@]2(c3cc(C(F)(F)F)cc(C(F)(F)F)c3)CCCO2)C(=O)O)cc1` are 4.62 nM, 1100 nM, 499 nM and 108.
The corresponding values for `COc1cccc(OC)c1-c1ccc(C[C@H](NC(=O)[C@@]2(c3ccc(Cl)cc3)CCCO2)C(=O)O)cc1` are 0.55 nM, 4.75 nM, 52.2 nM and 95.
The corresponding values for `COc1cccc(OC)c1-c1ccc(C[C@H](NC(=O)[C@@]2(c3nc4ccccc4o3)CCCO2)C(=O)O)cc1` are 0.42 nM, 2.4 nM, 377 nM and 897.
`COc1ccc(CNC2CC(C)O[C@@]2(C)C(=O)N[C@@H](Cc2ccc(-c3c(OC)cccc3OC)cc2)C(=O)O)cc1` (some centres undefined): the figures for the IC50 in test [1], in test [2] and in test [3] were 3.4 nM, 14.9 nM and 733 nM, respectively. Besides, the Ratio in test [4] came out at 225.
`COc1cccc(OC)c1-c1ccc(C[C@H](NC(=O)[C@@]2(CCCCN(C)C)CCCO2)C(=O)O)cc1`: the results for the concentration for half-maximal inhibition (IC50) in test [1], in test [2] and in test [3] were 16.3 nM, 22.9 nM and 226 nM, respectively. In addition, the Ratio in test [4] is 14.
The like results for `COc1ccccc1-c1ccc(C[C@H](NC(=O)[C@@]2(c3ccc(C(F)(F)F)cc3)CCCO2)C(=O)O)cc1` were, in that order, 5.31 nM, 120 nM, 504 nM and 95.
As for `COc1ccccc1-c1ccc(C[C@H](NC(=O)[C@@]2(c3ccc(C)c(C)c3)CCCO2)C(=O)O)cc1`, the IC50 in test [1] came to 6.18 nM; in test [2] it was 343 nM; in test [3], 374 nM. For the same molecule, the Ratio in test [4] was determined as 60.
The corresponding values for `CCOC(=O)[C@]1(C(=O)N[C@@H](Cc2ccc(-c3ccccc3OC)cc2)C(=O)O)CCCO1` are 4.06 nM, 19 nM, 51.1 nM and 13.
`COc1cccc(OC)c1-c1ccc(C[C@H](NC(=O)[C@@]2(C(=O)C(C)C)CCCO2)C(=O)O)cc1`: the IC50 in test [1] is 0.67 nM; in test [3], 11.2 nM. Also, the Ratio in test [4] is 22.
